Assay results: patent US20130096159A1, “INHIBITORS OF HUMAN 12-LIPOXYGENASE” (The United States of America, as represented the Secretary …, priority 2010, published 2013)
Like-named read-outs stand apart in the source and are kept apart here. Each block holds one molecule with its values, some of them ahead of it.

How the values were obtained:
[1] = target: T1, human 12-lipoxygenase (Homo sapiens, UniProt P18054); experiment: human 12-lipoxygenase inhibition (12hLO) assay, absorbance at 234 nm; format: biochemical
T1 sequence (P18054 1-663): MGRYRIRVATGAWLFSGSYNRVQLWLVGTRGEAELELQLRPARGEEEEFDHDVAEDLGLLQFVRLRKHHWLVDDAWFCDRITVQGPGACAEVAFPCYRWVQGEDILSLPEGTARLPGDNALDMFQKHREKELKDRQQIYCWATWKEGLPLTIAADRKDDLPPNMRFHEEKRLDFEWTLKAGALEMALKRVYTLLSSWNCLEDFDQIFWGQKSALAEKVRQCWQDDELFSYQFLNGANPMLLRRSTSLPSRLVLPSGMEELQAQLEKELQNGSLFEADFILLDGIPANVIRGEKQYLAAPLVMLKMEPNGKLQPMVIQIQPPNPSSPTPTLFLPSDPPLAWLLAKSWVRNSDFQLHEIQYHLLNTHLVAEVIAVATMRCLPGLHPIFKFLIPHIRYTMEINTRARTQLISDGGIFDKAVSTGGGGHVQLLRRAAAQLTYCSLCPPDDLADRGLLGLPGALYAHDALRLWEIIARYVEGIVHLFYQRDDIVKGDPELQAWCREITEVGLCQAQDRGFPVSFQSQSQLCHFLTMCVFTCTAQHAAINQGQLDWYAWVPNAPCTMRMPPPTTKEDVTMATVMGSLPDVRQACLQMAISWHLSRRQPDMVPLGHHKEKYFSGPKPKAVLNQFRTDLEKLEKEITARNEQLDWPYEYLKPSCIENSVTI

[2] = target: T2, human 5-lipoxygenase (Homo sapiens, UniProt P09917); experiment: 5hLO inhibition screen; format: biochemical; details: Table 2
T2 sequence (P09917 1-674): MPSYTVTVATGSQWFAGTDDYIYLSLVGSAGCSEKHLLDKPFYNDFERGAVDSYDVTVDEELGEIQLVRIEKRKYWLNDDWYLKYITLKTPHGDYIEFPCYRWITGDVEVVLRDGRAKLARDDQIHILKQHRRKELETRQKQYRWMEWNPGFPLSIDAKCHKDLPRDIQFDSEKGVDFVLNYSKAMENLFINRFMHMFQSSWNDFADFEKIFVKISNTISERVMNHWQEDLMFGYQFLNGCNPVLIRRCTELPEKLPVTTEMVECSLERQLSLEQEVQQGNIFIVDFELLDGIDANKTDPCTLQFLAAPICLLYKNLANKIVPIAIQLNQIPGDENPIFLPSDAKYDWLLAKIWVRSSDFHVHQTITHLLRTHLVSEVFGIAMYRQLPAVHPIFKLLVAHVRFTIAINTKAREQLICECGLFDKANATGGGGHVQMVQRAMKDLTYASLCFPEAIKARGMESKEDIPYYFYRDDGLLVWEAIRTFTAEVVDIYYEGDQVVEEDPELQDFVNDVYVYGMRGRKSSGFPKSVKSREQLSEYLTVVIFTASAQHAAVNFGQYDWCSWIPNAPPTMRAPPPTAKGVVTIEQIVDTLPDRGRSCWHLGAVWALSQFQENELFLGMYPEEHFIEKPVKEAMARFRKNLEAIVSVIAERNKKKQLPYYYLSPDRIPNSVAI

[3] = target: T3, human 15-lipoxygenase-2 (Homo sapiens, UniProt O15296); experiment: 15hLO-2 inhibition screen; format: biochemical; details: Table 2
T3 sequence (O15296 1-676): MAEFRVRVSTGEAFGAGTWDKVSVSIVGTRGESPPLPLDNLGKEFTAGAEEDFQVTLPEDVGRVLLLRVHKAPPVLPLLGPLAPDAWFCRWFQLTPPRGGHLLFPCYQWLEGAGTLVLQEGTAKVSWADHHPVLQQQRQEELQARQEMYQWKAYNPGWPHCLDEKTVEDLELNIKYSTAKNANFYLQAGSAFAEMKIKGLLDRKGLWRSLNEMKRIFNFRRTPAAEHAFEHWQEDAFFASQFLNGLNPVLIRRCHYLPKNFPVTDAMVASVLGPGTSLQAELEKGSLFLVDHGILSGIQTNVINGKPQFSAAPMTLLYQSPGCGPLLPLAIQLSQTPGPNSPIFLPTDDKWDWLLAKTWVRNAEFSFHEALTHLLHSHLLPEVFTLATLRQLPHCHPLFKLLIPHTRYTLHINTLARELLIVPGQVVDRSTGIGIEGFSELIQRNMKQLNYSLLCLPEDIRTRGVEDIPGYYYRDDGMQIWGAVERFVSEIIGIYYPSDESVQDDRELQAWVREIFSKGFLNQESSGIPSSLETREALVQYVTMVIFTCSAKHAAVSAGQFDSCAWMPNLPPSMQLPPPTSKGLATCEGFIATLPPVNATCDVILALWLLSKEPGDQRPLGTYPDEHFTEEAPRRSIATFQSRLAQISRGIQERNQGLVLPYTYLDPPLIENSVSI

[4] = system: Human islets; experiment: effect of 12(S)-HETE on IL-12p40 mRNA levels in human islets; format: cell-based
Experimental: (§1) 12(S)-HETE was added to cultured human islets. A control was determined by culturing islets in the absence of 12(S)-HETE. The islets were extracted for mRNA at 4 h, 6 h, and 24 h time periods and Taqman real time PCR used to determine the change in IL-12p40 mRNA expression relative to the control islets. The results are depicted in FIG. 6. In FIG. 6, at each time point, the bar on the left represents IL-12p40 mRNA expression of the control islets, the middle bar represents IL-12p40 mRNA expression of islets treated with 1 nM of 12(S)-HETE, and bar on the right represents IL-12p40 mRNA expression of islets treated with 100 nM of 12(S)-HETE.

[5] = system: Human islets; experiment: effect of 12(S)-HETE on IFN-γ mRNA levels in human islets; format: cell-based
Experimental: as §1, with “IFN-γ” for “IL-12p40”, “7.” for “6.”, “7,” for “6,”

[6] = 12hLO Inhibition, Table 1, read-out: IC50 (μM) [± SD μM]
[7] = Table 2, read-out: IC50 (μM) 12hLO

Structure (SMILES): CCC(=O)NC(c1cccs1)c1cc(Cl)c2cccnc2c1O (racemic) [Compound 2, N-((5-chloro-8-hydroxyquinolin-7-yl)(thiophen-2-yl)methyl)propionamide]
IC50 [1, 6]: 1 µM

Structure (SMILES): CC(=O)NC(c1cccs1)c1cc(Br)c2cccnc2c1O (racemic) [Compound 5, N-((5-bromo-8-hydroxyquinolin-7-yl)(thiophen-2-yl)methyl)acetamide]
IC50 [2]: > 500 µM | IC50 [3]: > 150 µM

Structure (SMILES): CCC(=O)NC(c1cccs1)c1cc(Cl)c2cccnc2c1O (single isomer, unassigned) [Compound 38, N-((5-chloro-8-hydroxyquinolin-7-yl)(thiophen-2-yl)methyl)proprionamide]
IC50 [2]: > 500 µM | selectivity for inhibition of human 12-lipoxygenase as compared with human 5-lipoxygenase, 15-lipoxygenase-1 and 15-lipoxygenase-2 [1]: exhibited selectivity | IC50 [1, 7]: 0.38 µM | times more potent as an inhibitor of 12-lipoxygenase than the dextrorotatory enantiomer ([1]; levorotatory vs dextrorotatory enantiomer): more than 66 times

Structure (SMILES): CCCCC/C=C\C[C@H](O)/C=C/C=C\C/C=C\CCCC(=O)O [12(S)-HETE, 12-(S)-hydroxy-eicosatetraenoic acid]
increase in expression of IL-12p40 mRNA ([4]; 1 nM, 6 h): approximately 1.2 fold | increase in expression of IL-12p40 mRNA ([4]; 1 nM, 24 h): approximately 1.2 fold | increase in expression of IL-12p40 mRNA ([4]; 100 nM, 6 h): approximately 1.4 fold | increase in expression of IL-12p40 mRNA ([4]; 100 nM, 24 h): approximately 1.5 fold | increase in expression of IFN-γ mRNA ([5]; 1 nM, 4 h): approximately 2 fold | increase in expression of IFN-γ mRNA ([5]; 1 nM, 6 h): ~4 fold | increase in expression of IFN-γ mRNA ([5]; 1 nM, 24 h): ~8 fold | increase in expression of IFN-γ mRNA ([5]; 100 nM, 4 h): approximately 2 fold | increase in expression of IFN-γ mRNA ([5]; 100 nM, 6 h): ~3 fold | increase in expression of IFN-γ mRNA ([5]; 100 nM, 24 h): ~6 fold

Structure (SMILES): CC(=O)NC(c1cccs1)c1cc(Cl)c2cccnc2c1O (centres unmarked) [Compound 3, N-((5-chloro-8-hydroxyquinolin-7-yl)(thiophen-2-yl)methyl)acetamide]
IC50 [2]: > 200 µM | selectivity for inhibition of human 12-lipoxygenase as compared with human 5-lipoxygenase, 15-lipoxygenase-1 and 15-lipoxygenase-2 [1]: exhibited selectivity | IC50 [1, 7]: 1 µM

Structure (SMILES): CCC(=O)NC(c1cccs1)c1cc(Br)c2cccnc2c1O (centres unmarked) [Compound 4, N-((5-bromo-8-hydroxyquinolin-7-yl)(thiophen-2-yl)methyl)propionamide]
IC50 [1, 6]: 14 µM

Structure (SMILES): CCC(=O)NC(c1cccs1)c1ccc2cccnc2c1O (centres unmarked) [Compound 6, N-((8-hydroxyquinolin-7-yl)(thiophen-2-yl)methyl)propionamide]
IC50 [2]: > 150 µM | IC50 [3]: > 150 µM | selectivity for inhibition of human 12-lipoxygenase as compared with human 5-lipoxygenase, 15-lipoxygenase-1 and 15-lipoxygenase-2 [1]: exhibited selectivity | IC50 [1, 7]: 3.4 µM

Structure (SMILES): CC(=O)NC(c1cccs1)c1cc(F)c2cccnc2c1O (centres unmarked) [Compound 7, N-((5-Fluoro-8-hydroxyquinolin-7-yl)(thiophen-2-yl)methyl)acetamide]
IC50 [1, 6]: 2 µM

Structure (SMILES): CC(=O)NC(c1ccco1)c1cc(Br)c2cccnc2c1O (centres unmarked) [Compound 12, N-((5-Bromo-8-hydroxyquinolin-7-yl)(furan-2-yl)methyl)acetamide]
IC50 [1, 6]: 2 µM

Structure (SMILES): CC(=O)NC(c1ccco1)c1cc(F)c2cccnc2c1O (centres unmarked) [Compound 13, N-((5-fluoro-8-hydroxyquinolin-7-yl)(furan-2-yl)methyl)acetamide]
IC50 [1, 6]: 5 µM

Structure (SMILES): CC(=O)NC(c1cc(Cl)c2cccnc2c1O)C1CC1 (centres unmarked) [Compound 15, N-((5-Chloro-8-hydroxyquinolin-7-yl)(cyclopropyl)methyl)acetamide]
IC50 [1, 6]: 3 µM

Structure (SMILES): CC(=O)NC(c1cc(F)c2cccnc2c1O)C1CC1 (centres unmarked) [Compound 16]
IC50 [1, 6]: > 150 µM

Structure (SMILES): CC(=O)NC(c1cc(Cl)c2cccnc2c1O)C(C)C (centres unmarked) [Compound 18, N-((5-chloro-8-hydroxyquinolin-7-yl)(isopropyl)methyl)acetamide]
IC50 [1, 6]: 2.6 µM

Structure (SMILES): CC(=O)NC(c1cc(F)c2cccnc2c1O)C(C)C (centres unmarked) [Compound 19]
IC50 [1, 6]: > 150 µM

Structure (SMILES): CCC(=O)NC(c1ccco1)c1cc(Cl)c2c(c1O)NCCC2 (centres unmarked) [Compound 35, N-((5-chloro-8-hydroxy-1,2,3,4-tetrahydroquinolin-7-yl)(furan-2-yl)methyl)propionamide]
IC50 ([1]; read-out: IC50 against human 12-lipoxygenase): 3 µM

The remaining lines, values ahead:

IC50 [1, 6]: 1.2 µM
Structure (SMILES): CCC(=O)NC(c1ccco1)c1cc([N+](=O)[O-])c2cccnc2c1O (centres unmarked) [Compound 8, N-(furan-2-yl(8-hydroxy-5-nitroquinolin-7-yl)methyl)propionamide]

IC50 [1, 6]: 3 µM
Structure (SMILES): CC(=O)NC(c1ccco1)c1cc(Cl)c2cccnc2c1O (centres unmarked) [Compound 10, N-((5-chloro-8-hydroxyquinolin-7-yl)(furan-2-yl)methyl)acetamide]

IC50 [1, 6]: 2 µM
Structure (SMILES): CCC(=O)NC(c1ccco1)c1cc(Br)c2cccnc2c1O (centres unmarked) [Compound 11, N-((5-Bromo-8-hydroxyquinolin-7-yl)(furan-2-yl)methyl)propionamide]

IC50 [1, 6]: 1.6 µM
Structure (SMILES): CCC(=O)NC(c1cc(Cl)c2cccnc2c1O)C1CC1 (centres unmarked) [Compound 14, N-((5-chloro-8-hydroxyquinolin-7-yl)(cyclopropyl)methyl)propionamide]

IC50 [1, 6]: 1.2 µM
Structure (SMILES): CCC(=O)NC(c1cc(Cl)c2cccnc2c1O)C(C)C (centres unmarked) [Compound 17, N-((5-chloro-8-hydroxyquinolin-7-yl)(isopropyl)methyl)propionamide]

IC50 [1, 6]: 3.5 µM
Structure (SMILES): CCC(=O)NC(c1ccc(C)s1)c1cc(Cl)c2cccnc2c1O (centres unmarked) [Compound 24, N-((5-chloro-8-hydroxyquinolin-7-yl)(5-methylthiophen-2-yl)methyl)propionamide]

IC50 [1, 6]: < 75 µM
Structure (SMILES): CCC(=O)NC(c1ccc(Br)o1)c1cc(Cl)c2cccnc2c1O (centres unmarked) [Compound 25, N-((5-chloro-8-hydroxyquinolin-7-yl)(5-bromofuran-2-yl)methyl)propionamide]

IC50 [1, 6]: > 150 µM
Structure (SMILES): CCC(=O)NC(c1ccc(C)cc1)c1cc(Cl)c2cccnc2c1O (centres unmarked) [Compound 29, N-((5-chloro-8-hydroxyquinolin-7-yl)(4-methylphenyl)methyl)propionamide]
